Data reported in patent publication US6376688B1, “Modified polyunsaturated fatty acids” (Peptide Technology Limited, priority 1994, dated 2002).

System: chloroquine sensitive P. falciparum
Assay: Direct antimalarial activity of novel fatty acids (malaria growth inhibition, 3H-hypoxanthine)
Type: cell-based
Details: not given
Method: The plates were then incubated overnight. Individual well contents were collected onto glass filter paper and incorporated 3H measured in a liquid scintillation counter. Percent growth inhibition of the parasite was then calculated.

Compound | EC50 [µM]
CCCCC/C=C\C/C=C\C/C=C\C/C=C\CCCCSC(CC(=O)O)C(=O)O (stereo not drawn) [α-carboxymethyl-β-thia 23.4 (n-6)] | 50
Z,Z,Z,Z-(5,8,11,14-Eicosatetraenylthio) propionic acid [γ-thia 24.4 (n-6)] | 15
CCCCCC(O)/C=C/C=C\C/C=C\CCCCCOCC(=O)O (stereo not drawn) [16-OH-β-oxa 21:3 (n-6), Z,Z,E-(13-Hydroxy-6,9,11-octadecatienyloxy)acetic acid] | 50
Z,Z,Z,Z,Z,Z-(9,12,15-Octadecatrienylthio)acetic acid [β-thia 25.6 (n-3)] | 25
CC/C=C\C/C=C\C/C=C\CCCCCCCCSCCC(=O)O [γ-thia 22.3 (n-3), Z,Z,Z-(9,12,15-Octadecatrienylthio)proponionic acid] | 45
CCCCC/C=C\C/C=C\C/C=C\C/C=C\CCCCOCC(=O)O [β-oxa 23.4 (n-6), Z,Z,Z,Z(5,8, 11, 14-Eicosatetraenyloxy) acetic acid] | < 30
Z,Z,Z,Z-(6,9,12-Octadecatrienylthio)acetic acid [β-thia 21:3 (n-6)] | 30 to 50
CCCCC/C=C\C/C=C\C/C=C\CCCCCSCCC(=O)O [γ-thia 22.3 (n-6), Z,Z,Z-(6,9,12-Octadecatrienylthio)propionic acid] | 45

Same assay, conditions: Plasmodium falciparum

Compound | EC50 [µM]
CC/C=C\C/C=C\C/C=C\CCCCCCCCOCC(=O)O [β-oxa 21:3 (n-3), Z,Z,Z-(9, 12, 15-Octadecatrienyloxy) acetic acid] | 30
CC/C=C\C/C=C\C/C=C\CCCCCCCCSCC(=O)O [β-thia 21:3 (n-3), Z,Z,Z-(9,12,15-Octadecatrienylthio)acetic acid] | 30 to 35
CCCCC/C=C\C/C=C\C/C=C\CCCCCOCC(=O)O [β-oxa 21:3 (n-6), Z,Z,Z-(6,9, 12-Octadecatrienyloxy) acetic acid] | < 30
CCCCC/C=C\C/C=C\C/C=C\C/C=C\CCCCSCC(=O)O [β-thia 23:4 (n-6), Z,Z,Z,Z-(5,8,11,14-Eicosatetraenylthio) acetic acid] | 15 to 30
CC/C=C\C/C=C\C/C=C\C/C=C\C/C=C\C/C=C\CCCOCC(=O)O [β-oxa 25.6 (n-3), Z,Z,Z,Z,Z,Z-(4,7, 10, 13, 16, 19-Docosahexaenyloxy) acetic acid] | < 60
CC/C=C\CC(O)/C=C/C=C\CCCCCCCCOCC(=O)O (stereo not drawn) [16-OH-β-oxa 21:3 (n-3), Z,E,Z-(13-Hydroxy-9, 11, 15-octadecatrienyloxy)acetic acid] | 40
CC/C=C\C/C=C\C/C=C\C/C=C\CCCCCOCC(=O)O [β-oxa 21:4 (n-3), Z,Z,Z,Z-(6,9, 12, 15-Octadecatetraenyloxy) acetic acid] | 40

System: TNFα production
Assay: PHA-induced TNFα production by mononuclear cells (ELISA)
Type: cell-based, human
Details: Homo sapiens, PUFA at 20 μM, Table 5, read-out: % INHIBITION OF CYTOKINE PRODUCTION (PUFA AT 20 μM)
Method: (§1) Mononuclear cells were separated from peripheral blood of normal human donors as described by Ferrante and Thong (1978. . . ). The mononuclear cells were resuspended in RPMI-1640 containing 20% human AB serum and placed into 96 well microtrays (50 μl per well, cell density […]). Fatty acid (66 μm) was then added in 50 μl and pre-incubated with the cells for 30 min at 37° C. in 5% CO2. Mitogen (PHA, ConA, PWM, Staph. aureus) was then added in 100 μl and the cells incubated for 66 hours at 37° C. in 5% CO2 before the addition of tritiated thymidine (1 μCi/well). After a total of 72 h in culture the cells were harvested and proliferation (thymidine incorporation) and supernatant's assayed for the presence of cytokines. Cytokine levels in culture supernatants were determined by specific ELISA using anti-cytokine antibodies. The following cytokine levels were determined TNFα, TNFβ, interferon-γ, IL-1β, IL-2.

Compound | inhibition at 20 µM [%]
CC/C=C\CC(O)/C=C/C=C\CCCCCCCCOCC(=O)O (stereo not drawn) [16-OH-β-oxa 21:3 (n-3), Z,E,Z-(13-Hydroxy-9, 11, 15-octadecatrienyloxy)acetic acid] | 68

Same assay, conditions: Table 5, first printing

Compound | % INHIBITION OF CYTOKINE PRODUCTION (PUFA AT 20 μM) [%]
Z,Z,Z,Z-(5,8,11,14-Eicosatetraenylthio) propionic acid [γ-thia 24.4 (n-6)] | 34
CCCCCC(O)/C=C/C=C\C/C=C\CCCCCOCC(=O)O (stereo not drawn) [16-OH-β-oxa 21:3 (n-6), Z,Z,E-(13-Hydroxy-6,9,11-octadecatienyloxy)acetic acid] | 71
Z,Z,Z,Z,Z,Z-(9,12,15-Octadecatrienylthio)acetic acid [β-thia 25.6 (n-3)] | 90
CC/C=C\C/C=C\C/C=C\CCCCCCCCSCCC(=O)O [γ-thia 22.3 (n-3), Z,Z,Z-(9,12,15-Octadecatrienylthio)proponionic acid] | 25
CCCCC/C=C\C/C=C\C/C=C\C/C=C\CCCCOCC(=O)O [β-oxa 23.4 (n-6), Z,Z,Z,Z(5,8, 11, 14-Eicosatetraenyloxy) acetic acid] | 25
Z,Z,Z,Z-(6,9,12-Octadecatrienylthio)acetic acid [β-thia 21:3 (n-6)] | 17
CCCCC/C=C\C/C=C\C/C=C\CCCCCSCCC(=O)O [γ-thia 22.3 (n-6), Z,Z,Z-(6,9,12-Octadecatrienylthio)propionic acid] | 41

Same assay, conditions: Table 5, second printing (stands where Table 6 is expected)

Compound | % INHIBITION OF CYTOKINE PRODUCTION (PUFA AT 20 μM) [%]
CC/C=C\C/C=C\C/C=C\CCCCCCCCOCC(=O)O [β-oxa 21:3 (n-3), Z,Z,Z-(9, 12, 15-Octadecatrienyloxy) acetic acid] | 39
CC/C=C\C/C=C\C/C=C\CCCCCCCCSCC(=O)O [β-thia 21:3 (n-3), Z,Z,Z-(9,12,15-Octadecatrienylthio)acetic acid] | 17
Z,Z,Z,Z-(5,8,11,14-Eicosatetraenylthio) propionic acid [γ-thia 24.4 (n-6)] | 34
CCCCC/C=C\C/C=C\C/C=C\CCCCCOCC(=O)O [β-oxa 21:3 (n-6), Z,Z,Z-(6,9, 12-Octadecatrienyloxy) acetic acid] | 38
CCCCC/C=C\C/C=C\C/C=C\C/C=C\CCCCSCC(=O)O [β-thia 23:4 (n-6), Z,Z,Z,Z-(5,8,11,14-Eicosatetraenylthio) acetic acid] | 35
CCCCCC(O)/C=C/C=C\C/C=C\CCCCCOCC(=O)O (stereo not drawn) [16-OH-β-oxa 21:3 (n-6), Z,Z,E-(13-Hydroxy-6,9,11-octadecatienyloxy)acetic acid] | 71
Z,Z,Z,Z,Z,Z-(9,12,15-Octadecatrienylthio)acetic acid [β-thia 25.6 (n-3)] | 90
CC/C=C\C/C=C\C/C=C\CCCCCCCCSCCC(=O)O [γ-thia 22.3 (n-3), Z,Z,Z-(9,12,15-Octadecatrienylthio)proponionic acid] | 25
CCCCC/C=C\C/C=C\C/C=C\C/C=C\CCCCOCC(=O)O [β-oxa 23.4 (n-6), Z,Z,Z,Z(5,8, 11, 14-Eicosatetraenyloxy) acetic acid] | 25
Z,Z,Z,Z-(6,9,12-Octadecatrienylthio)acetic acid [β-thia 21:3 (n-6)] | 17
CCCCC/C=C\C/C=C\C/C=C\CCCCCSCCC(=O)O [γ-thia 22.3 (n-6), Z,Z,Z-(6,9,12-Octadecatrienylthio)propionic acid] | 41

System: P. falciparum
Assay: Fatty acid stimulated neutrophil-mediated anti-malarial activity
Type: cell-based
Details: Plasmodium falciparum, neutrophil-mediated killing of P. falciparum, Table 2
Method: To overcome fatty acid insolubility in aqueous solution mixed dipalmitoyl phophatidylcholine (DPC, 400 μg): fatty acid (100 μg) micells were prepared in HBSS by sonication. Neutrophils were pretreated for 30 min at 37° C. In some experiments PUFA were solubilized in ethanol. Aliquots of RBC (5×10^6 with […] parasitaemia) was mixed with neutrophils […] in the wells of a 96-well microtitre plate and than incubated for 2 hr at 37° C. in 5% CO2 in air before adding 1 μCi of 3H-hypoxanthine. The plates were then incubated overnight. Individual well contents were collected onto glass filter paper and incorporated 3H measured in a liquid scintillation counter. Percent growth inhibition of the parasite was then calculated.

Compound | inhibition relative to 22:6 (%) at 16 µM [%]
CC/C=C\C/C=C\C/C=C\CCCCCCCCOCC(=O)O [β-oxa 21:3 (n-3), Z,Z,Z-(9, 12, 15-Octadecatrienyloxy) acetic acid] | 45
CC/C=C\C/C=C\C/C=C\CCCCCCCCSCC(=O)O [β-thia 21:3 (n-3), Z,Z,Z-(9,12,15-Octadecatrienylthio)acetic acid] | 73
CCCCC/C=C\C/C=C\C/C=C\C/C=C\CCCCSCC(=O)O [β-thia 23:4 (n-6), Z,Z,Z,Z-(5,8,11,14-Eicosatetraenylthio) acetic acid] | 150
CC/C=C\C/C=C\C/C=C\C/C=C\CCCCCOCC(=O)O [β-oxa 21:4 (n-3), Z,Z,Z,Z-(6,9, 12, 15-Octadecatetraenyloxy) acetic acid] | 85

Same assay, conditions: Table 2, second printing (stands where Table 3 is expected)

Compound | % INHIBITION RELATIVE TO 22:6 AT 16 μM [%]
Z,Z,Z,Z-(5,8,11,14-Eicosatetraenylthio) propionic acid [γ-thia 24.4 (n-6)] | 91

Same assay, conditions: Table 2, third printing (stands where Table 4 is expected)

Compound | % INHIBITION RELATIVE TO 22:6 AT 16 μM [%]
Z,Z,Z,Z-(5,8,11,14-Eicosatetraenylthio) propionic acid [γ-thia 24.4 (n-6)] | 91

Same assay, conditions: neutrophil-mediated killing of P. falciparum, Table 2

Compound | % INHIBITION RELATIVE TO 22:6 AT 16 μM [%]
Z,Z,Z,Z-(5,8,11,14-Eicosatetraenylthio) propionic acid [γ-thia 24.4 (n-6)] | 91
CCCCCC(O)/C=C/C=C\C/C=C\CCCCCOCC(=O)O (stereo not drawn) [16-OH-β-oxa 21:3 (n-6), Z,Z,E-(13-Hydroxy-6,9,11-octadecatienyloxy)acetic acid] | 33
Z,Z,Z,Z,Z,Z-(9,12,15-Octadecatrienylthio)acetic acid [β-thia 25.6 (n-3)] | 47

System: cytokine production (TNFα, interferon, IL-2)
Assay: PHA-induced cytokine production by human peripheral blood mononuclear cells (FIG. 3, FIG. 4)
Type: cell-based
Details: macrophage and T cell-derived cytokines
Method: as §1, with “cytokines.” for “cytokines. Cytokine levels in culture supernatants were determined by specific ELISA using anti-cytokine antibodies. The following cytokine levels were determined TNFα, TNFβ, interferon-γ, IL-1β, IL-2.”
Cytokine levels in culture supernatants were determined by specific ELISA using anti-cytokine antibodies. The following cytokine levels were determined TNFα, TNFβ, interferon-γ, IL-1β, IL-2.

Compound | effect on PHA-induced cytokine production
CCC=CCC=CCC=CCC=CCC=CCC=CCCC(=O)O [22:6, 4,7, 10, 13, 16, 19-docosahexaenoic acid] | inhibit in vitro production of macrophage and T cell-derived cytokines
CCC=CCC=CCC=CCC=CCC=CCCCC(=O)O [20:5, 5,8, 11, 14, 17-eicosapentaenoic] | inhibit in vitro production of macrophage and T cell-derived cytokines

System: human umbilical vein endothelial cells
Assay: TNFα-induced expression of E-selectin (ELAM-1) by human umbilical vein endothelial cells
Type: cell-based
Details: FIG. 5
Method: Human umbilical cord endothelial cells (5×10^4.passage 1) were plated onto the centre 60 wells of 96 well microtrays, the remaining wells were filled with pyrongen-free distilled water to reduce evaporation in the wells containing cells. The cells were fed with fresh medium (M199 supplemented with 20% FCS and endothelial cell growth supplement) every second day until confluent. On the day preceding the assay the cells were washed with HBSS and re-fed. At the time of assay the medium was aspirated and fatty acides prepared in media were added to each well and incubated for various times as shown in FIGS. At 37-0-C in 5% CO2. After this incubation the cells were washed and treated with either TNF or PMA before being washed three times in PBS and fixed (100 μl, 0.025% glutaraldehyde in PBS, overnight at 4° C.). The wells were washed with PBS and either anti-ELAM (Becton-Dickinson, 100 μl, 1/1.000 in M199 containing 20% FCS) or anti-ICAM (Immunotech, 100 μl, […] in M199 containing 20% FCS) was added and incubated for 1 hour at room temperature after which the wells were washed with PBS ant 100 μl of rabbit anti-mouse Ig-HRP conjugate was added (1/1.000. Dako). A further incubation at room temperature for one hour followed before the plates were washed three time prior to the addition of 100 μl of the substrate (ABTS). Colour development was measured at 410 nm in a microplate reader.

Compound | effect on TNFα-induced expression of E-selectin
CCCCCC=CCC=CCC=CCC=CCCCC(=O)O [20:4, 5,8,11,14-Eicosatetraenoic acid] | inhibit TNFα-induced expression of E-selection
